Laboratory results: patent US20260308108A1, “COMPOSITIONS AND METHODS FOR THE TREATMENT OF OCULAR DISORDERS” (Case Western Reserve University, priority 2023, published 2026)
Several values for one entry are separate records, joined by “and”; a condition that tells them apart may be missing. Equal values may be shown once. Entries after “also recorded” stand apart in the source; their conditions may differ. Read-outs that look alike come from different tables or passages of the source.

Assays:
RPE65 [1] = biological target: RPE65 (Bos taurus, UniProt Q28175); experiment: RPE65 activity assay in vitro (11-cis-retinol production by bovine RPE microsomes); details: for RPE65 inhibition (in words): in vitro
RPE65 (Bos taurus, UniProt Q28175), sequence (Q28175 whole entry): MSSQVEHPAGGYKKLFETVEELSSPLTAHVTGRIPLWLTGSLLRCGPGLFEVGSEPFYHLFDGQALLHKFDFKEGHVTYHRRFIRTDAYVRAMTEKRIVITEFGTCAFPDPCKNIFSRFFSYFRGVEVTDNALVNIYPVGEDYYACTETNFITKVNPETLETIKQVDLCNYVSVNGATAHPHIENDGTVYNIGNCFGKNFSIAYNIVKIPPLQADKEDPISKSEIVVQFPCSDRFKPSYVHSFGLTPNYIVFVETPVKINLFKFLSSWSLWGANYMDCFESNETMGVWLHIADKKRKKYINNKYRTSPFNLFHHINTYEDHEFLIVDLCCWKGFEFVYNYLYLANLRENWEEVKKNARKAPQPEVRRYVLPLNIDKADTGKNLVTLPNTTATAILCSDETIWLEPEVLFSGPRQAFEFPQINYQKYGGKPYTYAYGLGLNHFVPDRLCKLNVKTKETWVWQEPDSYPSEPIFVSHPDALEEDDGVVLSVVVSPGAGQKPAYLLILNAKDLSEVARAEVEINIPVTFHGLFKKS

RPE65 [2] = details: 10 mg/kg IP; for 11cRAL / RE: mean ± SD, n = 3 mice
[3] = Observation of animals after treatment (toxicity); assay type: in vivo, BALB/cJ mice; details: 10 mg/kg IP; even 24 h after treatment
Source text: Vehicle-only and nontreated animals served as controls. […] Three animals were used for each time point.

in vitro = details: mouse, microsomes
VAP-1 [4] = biological target: T1, VAP-1 (Mus musculus, UniProt O70423); experiment: VAP-1 oxidation assay (mouse aorta homogenates); details: role: substrate; for ACU-5201 (deaminated product) formed / concentration of tested compound in mouse aorta homogenate: 100 μM, mean ± SD, n = 3
T1 sequence (O70423 1-765): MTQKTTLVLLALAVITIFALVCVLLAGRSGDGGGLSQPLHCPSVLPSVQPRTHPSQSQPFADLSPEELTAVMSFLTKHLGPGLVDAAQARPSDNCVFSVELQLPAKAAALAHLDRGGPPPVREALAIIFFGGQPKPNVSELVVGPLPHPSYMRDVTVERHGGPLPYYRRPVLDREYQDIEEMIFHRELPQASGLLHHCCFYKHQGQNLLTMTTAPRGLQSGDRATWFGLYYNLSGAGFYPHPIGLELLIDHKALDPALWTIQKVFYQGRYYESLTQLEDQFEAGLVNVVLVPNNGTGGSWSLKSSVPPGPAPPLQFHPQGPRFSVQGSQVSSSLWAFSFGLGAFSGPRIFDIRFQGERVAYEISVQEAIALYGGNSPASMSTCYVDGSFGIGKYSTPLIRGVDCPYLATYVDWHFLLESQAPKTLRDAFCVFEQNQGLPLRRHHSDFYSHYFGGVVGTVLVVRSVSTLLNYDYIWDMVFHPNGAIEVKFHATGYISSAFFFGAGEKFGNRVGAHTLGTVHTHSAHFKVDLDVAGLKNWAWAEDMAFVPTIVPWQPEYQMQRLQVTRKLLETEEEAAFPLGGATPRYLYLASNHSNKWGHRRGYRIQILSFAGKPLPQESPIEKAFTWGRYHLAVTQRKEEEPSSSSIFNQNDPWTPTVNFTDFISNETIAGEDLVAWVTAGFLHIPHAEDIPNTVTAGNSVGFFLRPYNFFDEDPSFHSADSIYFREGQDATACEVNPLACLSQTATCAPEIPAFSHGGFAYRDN

[5] = test system: mouse liver microsomes (CYP-450 enzymes)
VAP-1 [6] = details: role: substrate; cited from earlier work
RPE65 [7] = details: among first targeted inhibitors (amine derivatives of retinol); cited from earlier work
[8] = read-out: IC50 ± SD, bovine RPE microsomes, mean ± SD, n = 3
[9] = bovine RPE microsomes, mean ± SD, n = 3

NCCC(O)c1ccc(OCC2CCCCC2)cc1 (stereo not shown) [Compound 3b, 3-Amino-1-(4-(cyclohexylmethoxy)phenyl)propan-1-ol]
IC50 (RPE65 [1]): 8.98 ± 3.44 µM

NCCC(O)c1ccccc1OCC1CCCCC1 (stereo not shown) [Compound 3c, 3-Amino-1-(2-(cyclohexylmethoxy)phenyl)propan-1-ol]
IC50 (RPE65 [1]; [8]): 4.67 ± 1.23 µM

NC(CCO)c1cccc(OCC2CCCCC2)c1 (stereo not shown) [Compound 6a, 3-Amino-3-(3-(cyclohexylmethoxy)phenyl)propan-1-ol]
IC50 ± SD (RPE65 [1]; [9]): No Inhibition
RPE65 inhibition (in words) (RPE65 [1]): lack of inhibitory activity; also recorded: no inhibition in vitro

NC(CO)Cc1cccc(OCC2CCCCC2)c1 (stereo not shown) [Compound 6b, 2-Amino-3-(3-(cyclohexylmethoxy)phenyl)propan-1-ol]
IC50 ± SD (RPE65 [1]; [9]): No Inhibition
RPE65 inhibition (in words) (RPE65 [1]): no inhibition in vitro

NC(CO)Cc1ccc(OCC2CCCCC2)cc1 (stereo not shown) [Compound 6c, 2-Amino-3-(4-(cyclohexylmethoxy)phenyl)propan-1-ol]
IC50 ± SD (RPE65 [1]; [9]): No Inhibition
RPE65 inhibition (in words) (RPE65 [1]): lack of dose-response relationship

NCC(O)c1cccc(OCC2CCCCC2)c1 (stereo not shown) [Compound 11a]
RPE65 inhibition (in words) (RPE65 [1]): substantially less potent than 3a
IC50 (RPE65 [1]; [8]): 3.19 ± 0.81 µM

NCCc1cccc(OCC2CCCCC2)c1 [Compound 11b, 2-(3-(Cyclohexylmethoxy)phenyl)ethan-1-amine]
RPE65 inhibition in vivo (in words) (RPE65 [2]): did not display hallmarks of inhibited RPE65 activity in vivo
11cRAL (RPE65 [2]; 0 h after light exposure): 16.2 ± 16.2 pmol/eye
RE (RPE65 [2]; 0 h after light exposure): 225.1 ± 29.5 pmol/eye
11cRAL (RPE65 [2]; 24 h): 137.4 ± 44.5 pmol/eye
RE (RPE65 [2]; 24 h): 377.3 ± 54.4 pmol/eye
IC50 (RPE65 [1]; bovine RPE microsomes): 0.42 ± 0.11 µM
more potent activity toward RPE65 relative to amine 11a (RPE65 [1]; relative to 11a): 7.6 times

CC(CN)c1cccc(OCC2CCCCC2)c1 (stereo not shown) [Compound 11c, 2-(3-(Cyclohexylmethoxy)phenyl)propan-1-amine]
RPE65 inhibition (in words) (RPE65 [1]): weaker inhibition; also recorded: the lowest level of inhibition
IC50 (RPE65 [1]; [8]): 6.73 ± 0.26 µM

NCCc1ccc(F)c(OCC2CCCCC2)c1 [Compound 11d, 2-(3-(Cyclohexylmethoxy)-4-fluorophenyl)ethan-1-amine]
IC50 (RPE65 [1]; [8]): 1.23 ± 0.13 µM
decrease in RPE65 inhibition relative to 11b (RPE65 [1]; relative to 11b): 3 fold

NCCCc1cccc(OCC2CCCCC2)c1 [Compound 16a]
IC50 (RPE65 [1]; [8]): 1.55 ± 0.3 µM
decrease in inhibition of RPE65 relative to 3a (RPE65 [1]): 8 fold

CC(CCN)c1cccc(OCC2CCCCC2)c1 (stereo not shown) [Compound 16b, 3-(3-(Cyclohexylmethoxy)phenyl)butan-1-amine]
RPE65 inhibition in vivo (in words) (RPE65 [2]): minor RPE65 inhibition 4 h after treatment, but animals were fully dark-adapted after 24 h
11cRAL (RPE65 [2]; 0 h after light exposure): 25.6 ± 2.7 pmol/eye
RE (RPE65 [2]; 0 h after light exposure): 291.5 ± 33.1 pmol/eye
11cRAL (RPE65 [2]; 4 h): 94.4 ± 11.4 pmol/eye
RE (RPE65 [2]; 4 h): 435.5 ± 27.5 pmol/eye
11cRAL (RPE65 [2]; 24 h): 370.5 ± 9.1 pmol/eye
RE (RPE65 [2]; 24 h): 123.9 ± 36.4 pmol/eye
RPE65 inhibition (in words) (RPE65 [1]): the lowest level of inhibition
IC50 (RPE65 [1]; [8]): 0.82 ± 0.5 µM
decrease in inhibition of RPE65 relative to 3a (RPE65 [1]): 4 fold
potency relative to 16a (RPE65 [1]; relative to 16a): roughly doubled
toxicity observed in treated animals [3]: all animals showed impaired body movement even 24 h after treatment

CC(CN)Cc1cccc(OCC2CCCCC2)c1 (stereo not shown) [Compound 16c]
11cRAL (RPE65 [2]; 0 h after light exposure): 17.4 ± 0.8 pmol/eye
RE (RPE65 [2]; 0 h after light exposure): 253.5 ± 22.5 pmol/eye
11cRAL (RPE65 [2]; 4 h): 323.0 ± 5.1 pmol/eye
RE (RPE65 [2]; 4 h): 111.9 ± 18.5 pmol/eye
11cRAL (RPE65 [2]; 24 h): 253.5 ± 9.0 pmol/eye
RE (RPE65 [2]; 24 h): 85.6 ± 12.7 pmol/eye
IC50 (RPE65 [1]): 0.59 ± 0.07 µM

CC(CN)Cc1ccc(F)c(OCC2CCCCC2)c1 (stereo not shown) [Compound 16d, 3-(3-(Cyclohexylmethoxy)-4-fluorophenyl)-2-methylpropan-1-amine]
11cRAL (RPE65 [2]; 0 h after light exposure): 23.5 ± 2.3 pmol/eye
RE (RPE65 [2]; 0 h after light exposure): 259.9 ± 54.6 pmol/eye
11cRAL (RPE65 [2]; 4 h): 398.0±26.6 pmol/eye and 413.2 ± 8.1 pmol/eye
RE (RPE65 [2]; 4 h): 101.1 ± 12.9 pmol/eye
11cRAL (RPE65 [2]; 24 h): 398.0 ± 26.6 pmol/eye
RE (RPE65 [2]; 24 h): 122.7 ± 30.6 pmol/eye
IC50 ± SD (RPE65 [1]; [9]): No Inhibition
RPE65 inhibition (in words) (RPE65 [1]): inactive

CNCCC(O)c1cccc(OCC2CCCCC2)c1 (stereo not shown) [Compound 16e, 1-(3-(Cyclohexylmethoxy)phenyl)-3-(methylamino)propan-1-ol]
11cRAL (RPE65 [2]; 0 h after light exposure): 13.8 ± 1.5 pmol/eye
RE (RPE65 [2]; 0 h after light exposure): 296.6 ± 65.2 pmol/eye
11cRAL (RPE65 [2]; 4 h): 22.5 ± 4.5 pmol/eye
RE (RPE65 [2]; 4 h): 393.5 ± 60.0 pmol/eye
level of 11cRAL as percent of the dark-adapted level (RPE65 [2]; 24 h): 53%
11cRAL (RPE65 [2]; 24 h): 201.8±53.2 pmol/eye
RE (RPE65 [2]; 24 h): 215.4±99.2 pmol/eye and 213.4 ± 99.2 pmol/eye
16e level in eye (after single IP of 3a, 1 h): 0.000 pmol/eye
16e level in serum (after single IP of 3a, 1 h): 0.00 pmol/mL serum
levels in eye and plasma (in words) (after single IP of 16e (10 mg/kg)): decreased significantly at 4 h and approached baseline levels in both eye and plasma at 24 h after injection
16e level in serum (after single IP of 16e, 24 h): 0.000 pmol/mL serum
concentration (read-out: 16e level in serum, after single IP of 16e, 4 h, 10 mg/kg): 0.111 µM
Km (in vitro): 39 µM
VAP-1 oxidative metabolism (in words) (VAP-1 [4]): resistant to VAP-1 oxidative deamination
ACU-5201 (deaminated product) formed (VAP-1 [4]; 0 h): 0.00 ± 0.00 µM
concentration of tested compound in mouse aorta homogenate (VAP-1 [4]; 0 h): 100.32 ± 0.95 µM
ACU-5201 (deaminated product) formed (VAP-1 [4]; 1 h): 0.48 ± 0.68 µM
concentration of tested compound in mouse aorta homogenate (VAP-1 [4]; 1 h): 101.20 ± 0.89 µM
ACU-5201 (deaminated product) formed (VAP-1 [4]; 4 h): 3.76 ± 0.29 µM
concentration of tested compound in mouse aorta homogenate (VAP-1 [4]; 4 h): 89.07 ± 0.49 µM
reduction of the formation of ACU-5201 (VAP-1 [4]; 1 h): about 99.5%
reduction of the formation of ACU-5201 (VAP-1 [4]; 4 h): ~96.25%
Km [5]: 39 µM

COc1cc(NC(C)CCCN)c2ncccc2c1 (stereo not shown) [primaquine]
VAP-1 metabolism (in words) (VAP-1 [6]): shown important

CC1=C(/C=C/C(C)=C/C=C/C(C)=C/CN)C(C)(C)CCC1 [retinylamine]
potency as RPE65 inhibitor (in words) (RPE65 [7]): the most potent among them

N=C(N)NCCCCCCNC(=O)COC(=O)NCCCCNCCCN [tresperimus]
VAP-1 metabolism (in words) (VAP-1 [6]): shown important
